# Measured values: PubChem BioAssay AID1259407 (Chemical Carcinogenesis Research Information System (CCRIS), 2018)
# Entries after “also recorded” stand apart in the source; their conditions may differ. Activity calls are given as the source filed them. The rule behind the calls is not given here.
# Tested on: CCRIS mutagenicity, Ames/micronucleus/aberration tests
# Assay: CCRIS mutagenicity studies
# [1] = Test System: AMES SALMONELLA TYPHIMURIUM, Strain/Indicator: TA98, Metabolic Activation: NONE, Method: STANDARD PLATE
# [2] = Test System: AMES SALMONELLA TYPHIMURIUM, Strain/Indicator: TA100, Metabolic Activation: NONE, Method: STANDARD PLATE
# [3] = Test System: AMES SALMONELLA TYPHIMURIUM, Strain/Indicator: TA1535, Metabolic Activation: NONE, Method: STANDARD PLATE
# [4] = Test System: AMES SALMONELLA TYPHIMURIUM, Strain/Indicator: TA1538, Metabolic Activation: NONE, Method: STANDARD PLATE
compound,measurement,setting,value
C[C@]12CC[C@@H]3c4ccc(O)cc4CC[C@H]3[C@@H]1CC[C@@H]2O,mutagenic call,"End Point: IN VITRO CHROMOSOMAL ABERRATIONS, Test System: CHINESE HAMSTER CELL DON (22;XY), Metabolic Activation: NONE",active; positive (ploidy changes)
same,mutagenic call,"End Point: IN VITRO CHROMOSOMAL ABERRATIONS, Test System: CHO CELLS, Metabolic Activation: NONE",active; positive (structural changes)
same,mutagenic call,"End Point: IN VITRO CHROMOSOMAL ABERRATIONS, Test System: HUMAN LYMPHOCYTES, Metabolic Activation: NONE, Method: FISH","active; positive (ploidy changes in chromosomes 1, 9, 16); also recorded: active; positive (ploidy changes in chromosomes 7 and 9)"
same,mutagenic call,"End Point: IN VITRO CHROMOSOMAL ABERRATIONS, Test System: HUMAN PERIPHERAL LYMPHOCYTES, Metabolic Activation: RAT, LIVER, S-9, AROCLOR 1254",inactive; negative
same,mutagenic call,"End Point: IN VITRO CHROMOSOMAL ABERRATIONS, Test System: HUMAN PERIPHERAL LYMPHOCYTES, Metabolic Activation: RAT, LIVER, S-9, PHENOBARBITONE",active; positive
same,mutagenic call,"End Point: IN VITRO CHROMOSOMAL ABERRATIONS, Test System: SYRIAN HAMSTER EMBRYO (SHE) CELLS, Metabolic Activation: NONE",active; positive (ploidy changes)
same,mutagenic call,"End Point: IN VITRO MICRONUCLEUS, Test System: HUMAN PERIPHERAL BLOOD LYMPHOCYTES, Metabolic Activation: NONE",active; positive
same,mutagenic call,"End Point: IN VITRO MICRONUCLEUS, Test System: HUMAN PERIPHERAL LYMPHOCYTES, Metabolic Activation: NONE",active; positive
same,mutagenic call,"End Point: IN VIVO MICRONUCLEUS, Test System: BONE MARROW POLYCHROMATIC ERYTHROCYTES, Species: MOUSE, Strain/Sex: B6C3F1/MALE, FEMALE, Route: IP INJECTION",inactive; negative
same,mutagenic call,"End Point: IN VIVO MICRONUCLEUS, Test System: BONE MARROW POLYCHROMATIC ERYTHROCYTES, Species: MOUSE, Strain/Sex: B6C3F1/MALE, Route: IP INJECTION",inactive; negative
same,mutagenic call,"End Point: IN VIVO MICRONUCLEUS, Test System: BONE MARROW POLYCHROMATIC ERYTHROCYTES, Species: MOUSE, Strain/Sex: CBA/MALE, Route: IP",inactive; negative
same,mutagenic call,"End Point: IN VIVO MICRONUCLEUS, Test System: BONE MARROW POLYCHROMATIC ERYTHROCYTES, Species: RAT, Strain/Sex: F344/MALE, Route: IP INJECTION",inactive; negative
same,mutagenic call,"Test System: AMES SALMONELLA TYPHIMURIUM, Strain/Indicator: TA98, Metabolic Activation: MOUSE, LIVER, S-9, Method: STANDARD PLATE",inactive; negative
same,mutagenic call,[1],inactive; negative
same,mutagenic call,"Test System: AMES SALMONELLA TYPHIMURIUM, Strain/Indicator: TA98, Metabolic Activation: RAT, LIVER, S-9, AROCLOR 1254, Method: STANDARD PLATE",inactive; negative
same,mutagenic call,"Test System: AMES SALMONELLA TYPHIMURIUM, Strain/Indicator: TA100, Metabolic Activation: MOUSE, LIVER, S-9, Method: STANDARD PLATE",inactive; negative
same,mutagenic call,[2],inactive; negative
same,mutagenic call,"Test System: AMES SALMONELLA TYPHIMURIUM, Strain/Indicator: TA100, Metabolic Activation: RAT, LIVER, S-9, AROCLOR 1254, Method: STANDARD PLATE",inactive; negative
same,mutagenic call,"Test System: AMES SALMONELLA TYPHIMURIUM, Strain/Indicator: TA1535, Metabolic Activation: MOUSE, LIVER, S-9, Method: STANDARD PLATE",inactive; negative
same,mutagenic call,[3],inactive; negative
same,mutagenic call,"Test System: AMES SALMONELLA TYPHIMURIUM, Strain/Indicator: TA1535, Metabolic Activation: RAT, LIVER, S-9, AROCLOR 1254, Method: STANDARD PLATE",inactive; negative
same,mutagenic call,"Test System: AMES SALMONELLA TYPHIMURIUM, Strain/Indicator: TA1537, Metabolic Activation: MOUSE, LIVER, S-9, Method: STANDARD PLATE",inactive; negative
same,mutagenic call,"Test System: AMES SALMONELLA TYPHIMURIUM, Strain/Indicator: TA1537, Metabolic Activation: NONE, Method: STANDARD PLATE",inactive; negative
same,mutagenic call,"Test System: AMES SALMONELLA TYPHIMURIUM, Strain/Indicator: TA1537, Metabolic Activation: RAT, LIVER, S-9, AROCLOR 1254, Method: STANDARD PLATE",inactive; negative
same,mutagenic call,"Test System: AMES SALMONELLA TYPHIMURIUM, Strain/Indicator: TA1538, Metabolic Activation: MOUSE, LIVER, S-9, Method: STANDARD PLATE",inactive; negative
same,mutagenic call,[4],inactive; negative
same,mutagenic call,"Test System: AMES SALMONELLA TYPHIMURIUM, Strain/Indicator: TA1538, Metabolic Activation: RAT, LIVER, S-9, AROCLOR 1254, Method: STANDARD PLATE",inactive; negative
same,mutagenic call,"Test System: CHINESE HAMSTER V-79, Strain/Indicator: V-79 (HPRT)/6-THIOGUANINE, Metabolic Activation: NONE",inactive; negative
same,mutagenic call,"Test System: CHINESE HAMSTER V-79, Strain/Indicator: V-79 (HPRT)/6-THIOGUANINE, Metabolic Activation: NONE, Method: SUSPENSION/PLATE",active; positive
same,mutagenic call,"Test System: UDS RAT HEPATOCYTES, Strain/Indicator: THY INCORP (18-20 HR), Metabolic Activation: NONE, Method: LIQUID SCINTILLATION COUNTING",inactive; negative
O=C1c2c(O)ccc(O)c2C(=O)c2c(NCCNCCO)ccc(NCCNCCO)c21,mutagenic call,"Test System: AMES SALMONELLA TYPHIMURIUM, Strain/Indicator: TA97, Metabolic Activation: NONE, Method: STANDARD PLATE",inactive; negative
same,mutagenic call,"Test System: AMES SALMONELLA TYPHIMURIUM, Strain/Indicator: TA97, Metabolic Activation: RAT, LIVER, S-9, PHENOBARBITAL AND ALPHA-NAPHTHOFLAVONE, Method: STANDARD PLATE",inactive; negative
same,mutagenic call,"Test System: AMES SALMONELLA TYPHIMURIUM, Strain/Indicator: TA97A, Metabolic Activation: NONE, Method: STANDARD PLATE",inactive; negative
same,mutagenic call,[1],active; positive
same,mutagenic call,"Test System: AMES SALMONELLA TYPHIMURIUM, Strain/Indicator: TA98, Metabolic Activation: RAT, LIVER, S-9, PHENOBARBITAL AND ALPHA-NAPHTHOFLAVONE, Method: STANDARD PLATE",active; positive
same,mutagenic call,[2],inactive; negative
same,mutagenic call,"Test System: AMES SALMONELLA TYPHIMURIUM, Strain/Indicator: TA100, Metabolic Activation: RAT, LIVER, S-9, PHENOBARBITAL AND ALPHA-NAPHTHOFLAVONE, Method: STANDARD PLATE",inactive; negative
same,mutagenic call,[3],inactive; negative
same,mutagenic call,"Test System: AMES SALMONELLA TYPHIMURIUM, Strain/Indicator: TA1535, Metabolic Activation: RAT, LIVER, S-9, PHENOBARBITAL AND ALPHA-NAPHTHOFLAVONE, Method: STANDARD PLATE",inactive; negative
same,mutagenic call,[4],active; positive
same,mutagenic call,"Test System: MOUSE LYMPHOMA, Strain/Indicator: L5178Y (TK+/TK-), Metabolic Activation: NONE, Method: SUSPENSION/PLATE",active; positive
same,mutagenic call,"Test System: MOUSE LYMPHOMA, Strain/Indicator: L5178Y (TK+/TK-), Metabolic Activation: RAT, LIVER, S-9, AROCLOR 1242 AND 1254 (2:1), Method: SUSPENSION/PLATE",active; positive
O=C1C=C(c2nnc(NC(=O)c3ccccc3)s2)C(=O)C=C1Nc1ccc([N+](=O)[O-])cc1,mutagenic call,[2],active; positive
O=C1c2ccccc2C(=O)c2c1ccc(O[C@@H]1O[C@H](CO[C@@H]3OC[C@@H](O)[C@H](O)[C@H]3O)[C@@H](O)[C@H](O)[C@H]1O)c2O,mutagenic call,"Test System: AMES SALMONELLA TYPHIMURIUM, Strain/Indicator: TA98, Metabolic Activation: NONE, Method: PREINCUBATION",inactive; negative
same,mutagenic call,"Test System: AMES SALMONELLA TYPHIMURIUM, Strain/Indicator: TA98, Metabolic Activation: RAT, LIVER, S-9, PCB, Method: PREINCUBATION",inactive; negative
same,mutagenic call,"Test System: AMES SALMONELLA TYPHIMURIUM, Strain/Indicator: TA100, Metabolic Activation: NONE, Method: PREINCUBATION",inactive; negative
same,mutagenic call,"Test System: AMES SALMONELLA TYPHIMURIUM, Strain/Indicator: TA100, Metabolic Activation: RAT, LIVER, S-9, PCB, Method: PREINCUBATION",inactive; negative
same,mutagenic call,"Test System: UDS PRIMARY RAT HEPATOCYTES, Strain/Indicator: THY INCORP, Metabolic Activation: NONE",active; positive
